How the values were obtained:
Assay type in all cases: in vivo
[1] = tested on: barnyardgrass (Echinochloa crus-galli); experiment: Test G Pre-Emergence Protocol; details: Echinochloa crus-galli, pre-emergence, 312 h, evaluated after 13 days; for pest or weed control at 15.625 g/ha: 15.625 g ai/ha, read-out: Barnyard grass damage rating (100=total damage to plant; 0=no damage to plant); for pest or weed control at 62.5 g/ha: 62.5 g ai/ha, 100=total damage to plant, 0=no damage to plant, read-out: plant damage rating, Barnyardgrass; for pest or weed control at 250 g/ha: 250 g ai/ha, read-out: Barnyardgrass damage rating (100=total damage to plant; 0=no damage to plant)
How it was run: (§1)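 One day after sowing, pots are treated with a spray of test compound formulated in acetone/water 50:50 plus 0.5% Tween 20, giving 15.625, 62.5 or 250 g/ha. Evaluation on a 0–100 damage scale follows 13 days of glasshouse growth.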

[2] = tested on: giant foxtail (Setaria faberi); experiment: Test G Pre-Emergence Protocol; details: Setaria faberi, pre-emergence, 312 h, evaluated after 13 days; for pest or weed control at 15.625 g/ha: 15.625 g ai/ha; for pest or weed control at 15.625 g/ha / pest or weed control at 250 g/ha: read-out: Foxtail, Giant damage rating (100=total damage to plant; 0=no damage to plant); for pest or weed control at 62.5 g/ha: 62.5 g ai/ha, 100=total damage to plant, 0=no damage to plant, read-out: plant damage rating, Foxtail, Giant; for pest or weed control at 250 g/ha: 250 g ai/ha
How it was run: as §1

[3] = tested on: ivy-leaved morning glory (Ipomoea hederacea); experiment: Test G Pre-Emergence Protocol; details: Ipomoea, pre-emergence, 312 h, evaluated after 13 days; for pest or weed control at 15.625 g/ha: 15.625 g ai/ha, read-out: Morning-glory, Ivy-leaved damage rating (100=total damage to plant; 0=no damage to plant); for pest or weed control at 62.5 g/ha: 62.5 g ai/ha, 100=total damage to plant, 0=no damage to plant, read-out: plant damage rating, Morningglory, Ivy-leaved; for pest or weed control at 250 g/ha: 250 g ai/ha, read-out: Morningglory, Ivy-leaved damage rating (100=total damage to plant; 0=no damage to plant)
How it was run: as §1

[4] = tested on: velvetleaf (Abutilon theophrasti); experiment: Test G Pre-Emergence Protocol; details: Abutilon theophrasti, pre-emergence, 312 h, evaluated after 13 days; for pest or weed control at 15.625 g/ha: 15.625 g ai/ha; for pest or weed control at 15.625 g/ha / pest or weed control at 250 g/ha: read-out: Velvetleaf damage rating (100=total damage to plant; 0=no damage to plant); for pest or weed control at 62.5 g/ha: 62.5 g ai/ha, 100=total damage to plant, 0=no damage to plant, read-out: plant damage rating, Velvetleaf; for pest or weed control at 250 g/ha: 250 g ai/ha
How it was run: as §1

[5] = tested on: corn (Zea mays); experiment: Test G Pre-Emergence Protocol; details: Zea mays, pre-emergence, 312 h, evaluated after 13 days; for plant injury at 15.625 g/ha: 15.625 g ai/ha; for plant injury at 15.625 g/ha / plant injury at 250 g/ha: read-out: Corn damage rating (100=total damage to plant; 0=no damage to plant); for plant injury at 62.5 g/ha: 62.5 g ai/ha, 100=total damage to plant, 0=no damage to plant, read-out: plant damage rating, Corn; for plant injury at 250 g/ha: 250 g ai/ha
How it was run: as §1

[6] = tested on: redroot pigweed (Amaranthus retroflexus); experiment: Test G Pre-Emergence Protocol; details: Amaranthus retroflexus, pre-emergence, 312 h, evaluated after 13 days; for pest or weed control at 15.625 g/ha: 15.625 g ai/ha; for pest or weed control at 15.625 g/ha / pest or weed control at 250 g/ha: read-out: Pigweed, Redroot damage rating (100=total damage to plant; 0=no damage to plant); for pest or weed control at 62.5 g/ha: 62.5 g ai/ha, 100=total damage to plant, 0=no damage to plant, read-out: plant damage rating, Pigweed, Redroot; for pest or weed control at 250 g/ha: 250 g ai/ha
How it was run: as §1

[7] = tested on: barnyardgrass (Echinochloa crus-galli); experiment: Test G Post-Emergence Protocol; details: Echinochloa crus-galli, post-emergence, 312 h; for pest or weed control at 15.625 g/ha: 15.625 g ai/ha, evaluated after 13 days (100=total damage to plant; 0=no damage to plant), read-out: Barnyardgrass damage rating; for pest or weed control at 62.5 g/ha: 62.5 g ai/ha, read-out: Barnyardgrass damage rating (100=total damage to plant; 0=no damage to plant); for pest or weed control at 62.5 g/ha / pest or weed control at 250 g/ha: evaluated after 13 days; for pest or weed control at 250 g/ha: 250 g ai/ha, read-out: damage to plant, Barnyardgrass (100=total damage to plant; 0=no damage to plant)
How it was run: (§2)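 Pot-grown seedlings, 8 days old, raised in a glasshouse at 24/16 °C day/night with 14 h light and 65% humidity, were sprayed post-emergence with test compound in acetone/water (50:50) plus 0.5% Tween 20 at 15.625, 62.5 or 250 g/ha. Damage was scored visually 13 days later on a 0–100 scale (100 = total damage).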

[8] = tested on: giant foxtail (Setaria faberi); experiment: Test G Post-Emergence Protocol; details: Setaria faberi, post-emergence, 312 h; for pest or weed control at 15.625 g/ha: 15.625 g ai/ha, evaluated after 13 days (100=total damage to plant; 0=no damage to plant), read-out: Foxtail, Giant damage rating; for pest or weed control at 62.5 g/ha: 62.5 g ai/ha, read-out: Foxtail, Giant damage rating (100=total damage to plant; 0=no damage to plant); for pest or weed control at 62.5 g/ha / pest or weed control at 250 g/ha: evaluated after 13 days; for pest or weed control at 250 g/ha: 250 g ai/ha, read-out: damage to plant, Foxtail, Giant (100=total damage to plant; 0=no damage to plant)
How it was run: as §2

[9] = tested on: ivy-leaved morning glory (Ipomoea hederacea); experiment: Test G Post-Emergence Protocol; details: Ipomoea, post-emergence, 312 h; for pest or weed control at 15.625 g/ha: 15.625 g ai/ha, evaluated after 13 days (100=total damage to plant; 0=no damage to plant), read-out: Morningglory, Ivy-leaved damage rating; for pest or weed control at 62.5 g/ha: 62.5 g ai/ha, read-out: Morningglory, Ivy-leaved damage rating (100=total damage to plant; 0=no damage to plant); for pest or weed control at 62.5 g/ha / pest or weed control at 250 g/ha: evaluated after 13 days; for pest or weed control at 250 g/ha: 250 g ai/ha, read-out: damage to plant, Morningglory, Ivy-leaved (100=total damage to plant; 0=no damage to plant)
How it was run: as §2

[10] = tested on: velvetleaf (Abutilon theophrasti); experiment: Test G Post-Emergence Protocol; details: Abutilon theophrasti, post-emergence, 312 h; for pest or weed control at 15.625 g/ha: 15.625 g ai/ha, evaluated after 13 days (100=total damage to plant; 0=no damage to plant), read-out: Velvetleaf damage rating; for pest or weed control at 62.5 g/ha: 62.5 g ai/ha, read-out: Velvetleaf damage rating (100=total damage to plant; 0=no damage to plant); for pest or weed control at 62.5 g/ha / pest or weed control at 250 g/ha: evaluated after 13 days; for pest or weed control at 250 g/ha: 250 g ai/ha, read-out: damage to plant, Velvetleaf (100=total damage to plant; 0=no damage to plant)
How it was run: as §2

[11] = tested on: corn (Zea mays); experiment: Test G Post-Emergence Protocol; details: Zea mays, post-emergence, 312 h; for plant injury at 15.625 g/ha: 15.625 g ai/ha, evaluated after 13 days (100=total damage to plant; 0=no damage to plant), read-out: Corn damage rating; for plant injury at 62.5 g/ha: 62.5 g ai/ha, read-out: Corn damage rating (100=total damage to plant; 0=no damage to plant); for plant injury at 62.5 g/ha / plant injury at 250 g/ha: evaluated after 13 days; for plant injury at 250 g/ha: 250 g ai/ha, read-out: damage to plant, Corn (100=total damage to plant; 0=no damage to plant)
How it was run: as §2

[12] = tested on: redroot pigweed (Amaranthus retroflexus); experiment: Test G Post-Emergence Protocol; details: Amaranthus retroflexus, post-emergence, 312 h; for pest or weed control at 15.625 g/ha: 15.625 g ai/ha, evaluated after 13 days (100=total damage to plant; 0=no damage to plant), read-out: Pigweed, Redroot damage rating; for pest or weed control at 62.5 g/ha: 62.5 g ai/ha, read-out: Pigweed, Redroot damage rating (100=total damage to plant; 0=no damage to plant); for pest or weed control at 62.5 g/ha / pest or weed control at 250 g/ha: evaluated after 13 days; for pest or weed control at 250 g/ha: 250 g ai/ha, read-out: damage to plant, Pigweed, Redroot (100=total damage to plant; 0=no damage to plant)
How it was run: as §2

SMILES	pest or weed control at 15.625 g/ha [1]	pest or weed control at 62.5 g/ha [1]	pest or weed control at 250 g/ha [1]	pest or weed control at 15.625 g/ha [2]	pest or weed control at 62.5 g/ha [2]	pest or weed control at 250 g/ha [2]	pest or weed control at 15.625 g/ha [3]	pest or weed control at 62.5 g/ha [3]	pest or weed control at 250 g/ha [3]	pest or weed control at 15.625 g/ha [4]	pest or weed control at 62.5 g/ha [4]	pest or weed control at 250 g/ha [4]	plant injury at 15.625 g/ha [5]	plant injury at 62.5 g/ha [5]	plant injury at 250 g/ha [5]	pest or weed control at 15.625 g/ha [6]	pest or weed control at 62.5 g/ha [6]	pest or weed control at 250 g/ha [6]	pest or weed control at 15.625 g/ha [7]	pest or weed control at 62.5 g/ha [7]	other results
CN1C[C@@H](c2ccc(C(F)(F)F)cc2)[C@H](C(=O)Nc2cn[nH]c2)C1=O (racemic) [Compound 1646]	0%	0%	0%	0%	0%	0%	0%	0%	0%	0%	0%	0%	0%	0%	0%	0%	0%	0%	0%	0%	pest or weed control at 250 g/ha [7]: 0%; pest or weed control at 15.625 g/ha [8]: 0%; pest or weed control at 62.5 g/ha [8]: 10%; pest or weed control at 250 g/ha [8]: 20%; pest or weed control at 15.625 g/ha [9]: 0%; pest or weed control at 62.5 g/ha [9]: 0%; pest or weed control at 250 g/ha [9]: 0%; pest or weed control at 15.625 g/ha [10]: 0%; pest or weed control at 62.5 g/ha [10]: 0%; pest or weed control at 250 g/ha [10]: 0%; plant injury at 15.625 g/ha [11]: 0%; plant injury at 62.5 g/ha [11]: 0%; plant injury at 250 g/ha [11]: 0%; pest or weed control at 15.625 g/ha [12]: 0%; pest or weed control at 62.5 g/ha [12]: 0%; pest or weed control at 250 g/ha [12]: 0%
Cc1cncc(NC(=O)[C@@H]2C(=O)N(C)C[C@H]2c2ccc(C(F)(F)F)cc2)n1 (racemic) [Compound 1647]	0%	0%	0%	0%	0%	70%	0%	0%	0%	0%	0%	10%	0%	0%	0%	0%	0%	20%	0%	0%	pest or weed control at 250 g/ha [7]: 50%; pest or weed control at 15.625 g/ha [8]: 0%; pest or weed control at 62.5 g/ha [8]: 30%; pest or weed control at 250 g/ha [8]: 70%; pest or weed control at 15.625 g/ha [9]: 0%; pest or weed control at 62.5 g/ha [9]: 0%; pest or weed control at 250 g/ha [9]: 20%; pest or weed control at 15.625 g/ha [10]: 0%; pest or weed control at 62.5 g/ha [10]: 0%; pest or weed control at 250 g/ha [10]: 40%; plant injury at 15.625 g/ha [11]: 0%; plant injury at 62.5 g/ha [11]: 0%; plant injury at 250 g/ha [11]: 10%; pest or weed control at 15.625 g/ha [12]: 0%; pest or weed control at 62.5 g/ha [12]: 0%; pest or weed control at 250 g/ha [12]: 30%

Reference: patent US12077503B2, “Substituted cyclic amides and their use as herbicides” (FMC CORPORATION, priority 2015, dated 2024)
